Results as given in PubChem BioAssay AID2060610 (Molecular Pharmacology Branch, DTP, NCI, 2025).
Where “and” joins values, the source holds several entries; their conditions need not be identical. Equal values may be shown once.

Tested on: 616215-338-R-J1-PDC complex spheroids, viability % test/control
Test: Anticancer human tumor 616215-338-R-J1-PDC patient-derived colon adenocarcinoma cell line growth inhibition [CLK]
Details: for viability, T/C: stronger effect = lower value; active = viability on the fitted dose curve at most 10% of control; inactive = the rest
Method in brief: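 Multi-cell-type spheroids combined patient-derived tumor cells with HUVEC endothelial cells and human mesenchymal stem cells. Paired agents were dosed in half-log steps down from about clinical Cmax, or from 10 microM where Cmax was unknown.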

[1] = curve of first compound, second compound 0.0316 µM
[2] = curve of first compound, second compound 0.1 µM
[3] = curve of first compound, second compound 0.316 µM
[4] = curve of first compound, second compound 1 µM
[5] = curve of first compound, second compound 3.16 µM
[6] = curve of first compound, second compound 10 µM
[7] = second compound 0.0316 µM, first compound 0.0316 µM
[8] = second compound 0.0316 µM, first compound 0.1 µM
[9] = second compound 0.0316 µM, first compound 0.316 µM
[10] = second compound 0.0316 µM, first compound 1 µM
[11] = second compound 0.0316 µM, first compound 3.16 µM
[12] = second compound 0.0316 µM, first compound 10 µM
[13] = second compound 0.1 µM, first compound 0.0316 µM
[14] = second compound 0.1 µM, first compound 0.1 µM
[15] = second compound 0.1 µM, first compound 0.316 µM
[16] = second compound 0.1 µM, first compound 1 µM
[17] = second compound 0.1 µM, first compound 3.16 µM
[18] = second compound 0.1 µM, first compound 10 µM
[19] = second compound 0.316 µM, first compound 0.0316 µM
[20] = second compound 0.316 µM, first compound 0.1 µM
[21] = second compound 0.316 µM, first compound 0.316 µM
[22] = second compound 0.316 µM, first compound 1 µM
[23] = second compound 0.316 µM, first compound 3.16 µM
[24] = second compound 0.316 µM, first compound 10 µM
[25] = second compound 1 µM, first compound 0.0316 µM
[26] = second compound 1 µM, first compound 0.1 µM
[27] = second compound 1 µM, first compound 0.316 µM
[28] = second compound 1 µM, first compound 1 µM
[29] = second compound 1 µM, first compound 3.16 µM
[30] = second compound 1 µM, first compound 10 µM
[31] = second compound 3.16 µM, first compound 0.0316 µM
[32] = second compound 3.16 µM, first compound 0.1 µM
[33] = second compound 3.16 µM, first compound 0.316 µM
[34] = second compound 3.16 µM, first compound 1 µM
[35] = second compound 3.16 µM, first compound 3.16 µM
[36] = second compound 3.16 µM, first compound 10 µM
[37] = second compound 10 µM, first compound 0.0316 µM
[38] = second compound 10 µM, first compound 0.1 µM
[39] = second compound 10 µM, first compound 0.316 µM
[40] = second compound 10 µM, first compound 1 µM
[41] = second compound 10 µM, first compound 3.16 µM
[42] = second compound 10 µM, first compound 10 µM
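Also: spheroids exposed to agents for 7 days.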
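For viability, T/C in this document: 100% = DMSO vehicle wells.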

CC(=O)O[C@H]1C(=O)[C@@]2(C)[C@H]([C@H](OC(=O)c3ccccc3)[C@]3(O)C[C@H](OC(=O)[C@H](O)[C@@H](NC(=O)c4ccccc4)c4ccccc4)C(C)=C1C3(C)C)[C@]1(OC(C)=O)CO[C@@H]1C[C@@H]2O + CNC(=O)c1ccc(Nc2nc(OC3CCCC3)c3c(-c4ccc5nc(C)oc5c4)c[nH]c3n2)c(OC)c1
inactive: viability, T/C [7] 35% | viability, T/C [8] 27.8% | viability, T/C [9] 23.3% | viability, T/C [10] 27% | viability, T/C [11] 30.8% | viability, T/C [12] 36.2% | viability, T/C [13] 39.9% | viability, T/C [14] 37.7% | viability, T/C [15] 35.2% | viability, T/C [16] 38.9% | viability, T/C [17] 41% | viability, T/C [18] 44.2% | viability, T/C [19] 34.8% | viability, T/C [20] 40% | viability, T/C [21] 32% | viability, T/C [22] 38.3% | viability, T/C [23] 58.5% | viability, T/C [24] 46% | viability, T/C [25] 45.6% | viability, T/C [26] 53.2% | viability, T/C [27] 56.6% | viability, T/C [28] 60.6% | viability, T/C [29] 59.5% | viability, T/C [30] 58.1% | viability, T/C [31] 34.3% | viability, T/C [32] 51.5% | viability, T/C [33] 63.4% | viability, T/C [34] 63% | viability, T/C [35] 72.1% | viability, T/C [36] 63.9% | viability, T/C [37] 39.5% | viability, T/C [38] 43.2% | viability, T/C [39] 70.7% | viability, T/C [40] 75% | viability, T/C [41] 62.7% | viability, T/C [42] 62%
< 31.6 nM: IC50 [1] | IC50 [2] | IC50 [3] | IC50 [4] | IC50 [5] | IC50 [6]

CC1COCCN1c1cc(C2(S(C)(=N)=O)CC2)nc(-c2ccnc3[nH]ccc23)n1 (centres undefined) + CNC(=O)c1ccc(Nc2nc(OC3CCCC3)c3c(-c4ccc5nc(C)oc5c4)c[nH]c3n2)c(OC)c1
< 31.6 nM: IC50 [3] | IC50 [4] | IC50 [6]
> 10000 nM: IC50 [1]
inactive: viability, T/C [7] 95.5% | viability, T/C [8] 91.2% | viability, T/C [9] 90.9% | viability, T/C [10] 98.4% | viability, T/C [11] 101% | viability, T/C [12] 78.7% | viability, T/C [13] 53.4% | viability, T/C [14] 57.4% | viability, T/C [15] 52.6% | viability, T/C [16] 51.8% | viability, T/C [17] 44.8% | viability, T/C [18] 36.6% | viability, T/C [19] 48.3% | viability, T/C [20] 45.4% | viability, T/C [21] 51.5% | viability, T/C [22] 46.7% | viability, T/C [23] 56.9% | viability, T/C [24] 36.1% | viability, T/C [25] 54.5% | viability, T/C [26] 44% | viability, T/C [27] 47% | viability, T/C [28] 46.4% | viability, T/C [29] 44.5% | viability, T/C [30] 31.7% | viability, T/C [31] 49.7% | viability, T/C [32] 49.6% | viability, T/C [33] 46.3% | viability, T/C [34] 39.8% | viability, T/C [35] 37.7% | viability, T/C [36] 29.5% | viability, T/C [37] 43.1% | viability, T/C [38] 37.4% | viability, T/C [39] 40.9% | viability, T/C [40] 36.9% | viability, T/C [41] 33.3% | viability, T/C [42] 30.9%
42 nM: IC50 [5]
1220 nM: IC50 [2]

CC1COCCN1c1cc(C2(S(C)(=N)=O)CC2)nc(-c2ccnc3[nH]ccc23)n1 (centres undefined)
> 10000 nM: IC50 (curve of compound)
inactive: viability, T/C (compound 0.0316 µM) 94.9% and 102% | viability, T/C (compound 0.1 µM) 107% and 96.5% | viability, T/C (compound 0.316 µM) 97.7% and 96.1% | viability, T/C (compound 1 µM) 99.8% and 94.2% | viability, T/C (compound 3.16 µM) 105% and 106% | viability, T/C (compound 10 µM) 78.6% and 92.2%

COC1C=CCC(C)C(C)S(=O)(=O)NC(=O)c2ccc3c(c2)N(CC2CCC21)CC1(CCCc2cc(Cl)ccc21)CO3 (centres undefined)
inactive: viability, T/C (compound 0.0316 µM) 42.2% and 92.1% | viability, T/C (compound 0.1 µM) 33.1% and 98.1% | viability, T/C (compound 0.316 µM) 95.7% and 96.9% | viability, T/C (compound 1 µM) 104% and 101% | viability, T/C (compound 3.16 µM) 38.7% and 103%
2050 nM and > 10000 nM: IC50 (curve of compound)

CC(Nc1ccc2c(c1)OCCn1cc(N3C(=O)OCC3C(F)F)nc1-2)C(N)=O (centres undefined)
inactive: viability, T/C (compound 0.0316 µM) 89.4% and 107% | viability, T/C (compound 0.1 µM) 99.5% and 103% | viability, T/C (compound 0.316 µM) 105% and 108% | viability, T/C (compound 1 µM) 101% and 100% | viability, T/C (compound 3.16 µM) 99.9% and 110% | viability, T/C (compound 10 µM) 90.6% and 100%
> 10000 nM: IC50 (curve of compound)
